According to article PMC3891835 (American journal of obstetrics and gynecology, 2012):
Counter-ions that a name gives are not always drawn.

How the values were obtained:
P-glycoprotein (P-gp) [1] = target: T1, P-glycoprotein (P-gp) (Homo sapiens, UniProt P08183); conditions: placental IOV; concentration range tested 100 to 1000 μM; 40 nM [3H]-paclitaxel
[2] = cited from earlier work
P-glycoprotein (P-gp) [3] = target: T1, P-glycoprotein (P-gp); test: biochemical

T1 sequence (P08183 whole entry): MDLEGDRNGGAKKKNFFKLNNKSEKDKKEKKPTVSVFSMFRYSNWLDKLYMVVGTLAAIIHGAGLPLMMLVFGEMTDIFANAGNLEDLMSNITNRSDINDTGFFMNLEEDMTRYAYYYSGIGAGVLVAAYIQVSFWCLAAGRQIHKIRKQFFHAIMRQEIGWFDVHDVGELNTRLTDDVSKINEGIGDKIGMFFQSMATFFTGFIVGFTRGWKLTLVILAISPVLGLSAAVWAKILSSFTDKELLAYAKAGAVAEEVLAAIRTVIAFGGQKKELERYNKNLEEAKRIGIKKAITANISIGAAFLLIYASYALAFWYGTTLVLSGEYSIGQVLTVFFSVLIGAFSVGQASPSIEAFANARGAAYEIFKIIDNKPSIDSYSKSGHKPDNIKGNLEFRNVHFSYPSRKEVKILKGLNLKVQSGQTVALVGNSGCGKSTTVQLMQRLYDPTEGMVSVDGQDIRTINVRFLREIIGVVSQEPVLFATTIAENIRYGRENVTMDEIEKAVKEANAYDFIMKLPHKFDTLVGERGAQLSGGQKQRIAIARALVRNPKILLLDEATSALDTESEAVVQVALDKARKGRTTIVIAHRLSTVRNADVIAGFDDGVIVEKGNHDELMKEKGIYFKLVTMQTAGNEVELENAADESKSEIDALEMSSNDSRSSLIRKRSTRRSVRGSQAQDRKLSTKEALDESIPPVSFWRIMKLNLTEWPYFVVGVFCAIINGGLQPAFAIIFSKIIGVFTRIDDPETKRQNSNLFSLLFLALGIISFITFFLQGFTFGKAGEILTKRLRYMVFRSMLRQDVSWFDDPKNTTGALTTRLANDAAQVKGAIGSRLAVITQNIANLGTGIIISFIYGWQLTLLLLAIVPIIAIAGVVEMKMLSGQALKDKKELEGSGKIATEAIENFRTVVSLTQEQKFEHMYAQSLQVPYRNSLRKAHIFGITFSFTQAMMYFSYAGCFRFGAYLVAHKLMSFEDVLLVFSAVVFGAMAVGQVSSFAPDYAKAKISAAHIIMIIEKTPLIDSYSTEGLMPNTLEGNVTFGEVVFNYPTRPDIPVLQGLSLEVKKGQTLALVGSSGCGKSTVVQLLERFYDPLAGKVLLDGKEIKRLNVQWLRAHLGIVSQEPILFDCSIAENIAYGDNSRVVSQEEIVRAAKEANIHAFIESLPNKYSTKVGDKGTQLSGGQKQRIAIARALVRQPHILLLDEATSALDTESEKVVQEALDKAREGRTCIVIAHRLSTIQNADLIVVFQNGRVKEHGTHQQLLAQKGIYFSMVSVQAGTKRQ

Row | SMILES | effect on the ATP-dependent uptake of [3H]-paclitaxel by IOV (P-glycoprotein (P-gp) [1]) | binding to proteins [2] [%] | IC50 (P-glycoprotein (P-gp) [3]) [µM]
1 | CN[C@H](CC(C)C)C(=O)N[C@H]1C(=O)N[C@@H](CC(N)=O)C(=O)N[C@H]2C(=O)N[C@H]3C(=O)N[C@H](C(=O)N[C@H](C(=O)O)c4cc(O)cc(O)c4-c4cc3ccc4O)[C@H](O)c3ccc(c(Cl)c3)Oc3cc2cc(c3O[C@@H]2O[C@H](CO)[C@@H](O)[C@H](O)[C@H]2O[C@H]2C[C@](C)(N)[C@H](O)[C@H](C)O2)Oc2ccc(cc2Cl)[C@H]1O [vancomycin, vancomycin hydrochloride] | did not affect | 50 | 
2 | CCCCCCCCCCNCCN[C@@]1(C)C[C@H](O[C@H]2[C@H](Oc3c4cc5cc3Oc3ccc(cc3Cl)[C@@H](O)[C@@H](NC(=O)[C@@H](CC(C)C)NC)C(=O)N[C@@H](CC(N)=O)C(=O)N[C@H]5C(=O)N[C@H]3C(=O)N[C@H](C(=O)N[C@H](C(=O)O)c5cc(O)c(CNCP(=O)(O)O)c(O)c5-c5cc3ccc5O)[C@H](O)c3ccc(c(Cl)c3)O4)O[C@H](CO)[C@@H](O)[C@@H]2O)O[C@@H](C)[C@H]1O [telavancin, Telavancin] |  | 93 | 50
